Assay: Inhibition of Pseudomonas aeruginosa LecB

| IC50 | Structure (SMILES) |
| --- | --- |
| 0.14 µM | CC[C@H](C)[C@H](NC(=O)[C@H](Cc1cnc[nH]1)NCCCC[C@H](NC(=O)[C@@H](NC(=O)[C@H](CCCCN)NC(=O)[C@H](Cc1ccccc1)NC(=O)[C@H](CCCCNC(=O)[C@H](CC(C)C)NC(=O)[C@@H]1CCCN1C(=O)[C@@H](N)CCCCNC(=O)C[C@@H]1O[C@@H](C)[C@@H](O)[C@@H](O)[C@@H]1O)NC(=O)[C@H](CC(C)C)NC(=O)[C@@H]1CCCN1C(=O)[C@@H](N)CCCCNC(=O)C[C@@H]1O[C@@H](C)[C@@H](O)[C@@H](O)[C@@H]1O)[C@@H](C)CC)C(=O)N[C@H](C(=O)N[C@@H](CCCCN)C(=O)N[C@@H](Cc1ccccc1)C(=O)N[C@@H](CCCCN[C@@H](CC(C)C)C(=O)N1CCC[C@H]1C(=O)N[C@@H](CCCCNC(=O)C[C@@H]1O[C@@H](C)[C@@H](C)[C@@H](C)[C@@H]1O)C(=O)O)C(=O)N[C@@H](CC(C)C)C(=O)N1CCC[C@H]1C(=O)N[C@@H](CCCCNC(=O)C[C@@H]1O[C@@H](C)[C@@H](O)[C@@H](O)[C@@H]1O)C(=O)O)[C@@H](C)CC)C(N)=O |
| 100 µM | CO[C@H]1O[C@H]([C@@H](O)CNS(=O)(=O)c2c(C)cc(C)cc2C)[C@@H](O)[C@H](O)[C@@H]1O |
| 8 µM | CCCCCCCCO[C@@H]1O[C@H](CO)[C@H](O[C@@H]2O[C@H](CO)[C@H](O)[C@H](O)[C@H]2NC(C)=O)[C@H](O)[C@H]1OCCC |

Source: BindingDB's records for PubMed 26804741 (Helmholtz Institute For Pharmaceutical Research Saarland …, 2016)
